Results reported in PubChem BioAssay (NCI).
Several values for one entry are separate records, joined by “and”; a condition that tells them apart may be missing. Equal entries are not always repeated.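 How tested: cells in 96-well plates exposed to compound for 48 hours at five concentrations. Abbreviation: GI50, concentration required for 50% inhibition of growth. The concentration for full growth arrest is given as TGI.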

Tests used:
Experiment in all cases: DTP human tumour cell line panel, 48 h
NCI-H460 lung = tested on: NCI-H460 lung
T-47D breast = tested on: T-47D breast
HCT-15 colon = tested on: HCT-15 colon
M14 melanoma = tested on: M14 melanoma
SK-MEL-2 melanoma = tested on: SK-MEL-2 melanoma
SW-620 colon = tested on: SW-620 colon
HT29 colon = tested on: HT29 colon
HCT-116 colon = tested on: HCT-116 colon
NCI/ADR-RES ovarian = tested on: NCI/ADR-RES ovarian
EKVX NSCLC = tested on: EKVX NSCLC

| SMILES | GI50 (NCI-H460 lung) | TGI (NCI-H460 lung) [µM] | GI50 (T-47D breast) [µM] | TGI (T-47D breast) [µM] | GI50 (HCT-15 colon) | TGI (HCT-15 colon) | GI50 (M14 melanoma) | TGI (M14 melanoma) | GI50 (SK-MEL-2 melanoma) | TGI (SK-MEL-2 melanoma) | GI50 (SW-620 colon) | TGI (SW-620 colon) | GI50 (HT29 colon) | TGI (HT29 colon) | GI50 (HCT-116 colon) | TGI (HCT-116 colon) | GI50 (NCI/ADR-RES ovarian) | TGI (NCI/ADR-RES ovarian) [µM] | TGI (EKVX NSCLC) | GI50 (EKVX NSCLC) [µM] |
| --- | --- | --- | --- | --- | --- | --- | --- | --- | --- | --- | --- | --- | --- | --- | --- | --- | --- | --- | --- | --- |
| CCN(Cc1cc(F)ccc1F)c1ccc(CO)c(Cl)c1 | 0.177 µM | 10.8 | 0.116 | 1.9 | 12.8 µM | 32.3 µM | 15.5 µM | 32.5 µM | 2.72 µM | 19.5 µM | 0.554 µM | 20.5 µM | 4.1 µM | 17.7 µM | 0.0553 µM | 11.7 µM | 13.6 µM | 39.9 |  |  |
| O=C(O)c1cc(=O)c2c([nH]c3ccccc32)s1 |  | > 100 |  |  |  | > 100 µM |  | > 100 µM |  | > 100 µM |  | > 100 µM |  |  |  |  |  |  | > 100 µM |  |
| Cl/C(N=Nc1ccccc1)=N/Nc1ccccc1 |  | > 100 |  |  |  |  |  |  |  | > 100 µM |  | > 100 µM |  | > 100 µM |  | > 100 µM |  |  | > 100 µM |  |
| O=C(/C=C/c1ccc(O)c(O)c1)NCc1c[nH]c2ccccc12 | 50.1 µM | > 100 | > 100 | > 100 | 44.2 µM | > 100 µM | 64.8 µM | > 100 µM |  |  | 58.6 µM | > 100 µM | 47.2 µM | > 100 µM | 62.2 µM | > 100 µM | > 100 µM | > 100 | > 100 µM | 41.5 |
| O=[N+]([O-])c1cccc(-c2nc(-c3ccccc3)c(-c3ccccc3)[nH]2)c1 |  | > 100 |  | > 100 |  |  |  | > 100 µM |  | > 100 µM |  | > 100 µM |  |  |  | > 100 µM |  | > 100 | > 100 µM |  |
| COC(=O)C1C(=O)CC2CCCCC21 (stereo not drawn) |  | > 100 |  |  |  | > 100 µM |  | > 100 µM |  | > 100 µM |  | > 100 µM |  |  |  | > 100 µM |  |  |  |  |
| Cc1nc2ccc(Br)cc2c(=O)n1-c1ccc(NC2OCC(O)C(O)C2O)cc1 (stereo not drawn) | 47.2 µM and > 100 µM | > 100 |  |  | 19.7 µM and > 100 µM | 43.6 µM and > 100 µM | 17.9 µM and > 100 µM | 35.6 µM and > 100 µM | 25.6 µM and > 100 µM | 66.3 µM and > 100 µM | 17.8 µM and > 100 µM | 47 µM and > 100 µM | 20.7 µM and > 100 µM | 48.7 µM and > 100 µM | 17.7 µM and 79.2 µM | 53.7 µM and > 100 µM | 41.9 µM and > 100 µM | > 100 | > 100 µM |  |
| Cc1cc(NC(=O)C2C3C=CC(O3)C2C(=O)O)no1 (stereo not drawn) |  | > 100 |  |  |  | 37.4 µM |  | > 100 µM |  | > 100 µM |  | 5.92 µM |  | > 100 µM |  | 32 µM |  |  | > 100 µM |  |
| CC1(C)C2CCC3(OCCO3)C1C(O)C2 (stereo not drawn) |  | > 100 |  |  |  | > 100 µM |  | > 100 µM |  | > 100 µM |  | > 100 µM |  | > 100 µM |  | > 100 µM |  |  | > 100 µM |  |
| CN(C)/C=N\c1ccnc(=O)[nH]1 |  | > 100 |  |  |  | > 100 µM |  | > 100 µM |  | > 100 µM |  | > 100 µM |  | > 100 µM |  | > 100 µM |  |  | > 100 µM |  |
| CC(C)(O)/C=C/C(=O)[C@](C)(O)[C@H]1[C@H](O)C[C@@]2(C)[C@@H]3CC=C4[C@@H](C[C@H](O)C(=O)C4(C)C)[C@]3(C)C(=O)C[C@]12C | 0.0509 µM | 20.4 |  |  | 0.0862 µM and 0.159 µM |  | 0.0563 µM | 5.94 µM | 0.0294 µM | 0.0829 µM and 0.131 µM | 0.104 µM | 9.68 µM | 0.0623 µM | 18.3 µM | 0.164 µM |  |  |  | 0.833 µM and 3.47 µM | 0.477 |
| N#C/C(=C\c1cccc(O)c1O)C(N)=O |  | > 100 |  |  |  | > 100 µM |  | > 100 µM |  | > 100 µM |  | > 100 µM |  | > 100 µM |  | > 100 µM |  |  | > 100 µM |  |
| CC(=O)NC(CCCCN)C(=O)NCc1ccccc1 (stereo not drawn) |  | > 100 |  |  |  | > 100 µM |  | > 100 µM |  | > 100 µM |  | > 100 µM |  | > 100 µM |  | > 100 µM |  |  | > 100 µM |  |
| Cc1c(C(=O)/C=C/C=C/c2ccccc2)[n+](=O)c2ccccc2n1[O-] |  | 61.5 |  |  |  | 36.9 µM |  | 45.9 µM |  | 91.3 µM |  | > 100 µM |  |  |  |  |  |  | > 100 µM |  |
| CC1(c2cc3c(cc2Br)OCO3)SCCCS1 |  | > 100 |  |  |  | > 100 µM |  | > 100 µM |  | 88.3 µM |  | > 100 µM |  | > 100 µM |  | > 100 µM |  |  | > 100 µM |  |
| Cc1ccc(Oc2ccccc2N)cc1 |  | > 100 |  |  |  | > 100 µM |  | > 100 µM |  | > 100 µM |  | > 100 µM |  | > 100 µM |  | 36 µM |  |  | > 100 µM |  |
| Cc1cc(C)c2c(n1)sc1c(N)ncnc12 | > 25 µM | > 25 | > 25 | > 25 | > 25 µM | > 25 µM | > 25 µM | > 25 µM | > 25 µM | > 25 µM | > 25 µM | > 25 µM | 16.2 µM | > 25 µM | 24.4 µM | > 25 µM | > 25 µM | > 25 |  |  |
| NNc1cnn(-c2ccccc2)c(=O)c1Cl |  | > 100 |  |  |  | > 100 µM |  | > 100 µM |  | > 100 µM |  | > 100 µM |  | > 100 µM |  | > 100 µM |  |  |  |  |
| Cc1cccc2c1c1ccc3c(c1n2C)C(=O)C=CC3=O |  | 37.8 |  |  |  | 10.5 µM |  | 17.9 µM |  | 33.6 µM |  | 4.33 µM |  | 14 µM |  | 15.1 µM |  |  | 38.2 µM |  |
| CNc1ccc2ncccc2c1[N+](=O)[O-] |  | > 100 |  |  |  | > 100 µM |  | > 100 µM |  | > 100 µM |  | > 100 µM |  | > 100 µM |  | > 100 µM |  |  | > 100 µM |  |
| Cc1cc(C)nc(/C(=N\NC(N)=O)C(=O)Nc2nc3ccc(C)cc3s2)c1 |  | > 100 |  |  |  | > 100 µM |  | > 100 µM |  | > 100 µM |  | > 100 µM |  | > 100 µM |  | > 100 µM |  |  | > 100 µM |  |
| C#CCNC(=O)ON1C(=O)CCC1=O |  | > 100 |  |  |  | > 100 µM |  |  |  | > 100 µM |  | > 100 µM |  | > 100 µM |  | > 100 µM |  |  | > 100 µM |  |
| CCc1cccc(C)c1NC(=O)CCc1nnc2s/c(=C\c3cccc4ccccc34)c(=O)n12 |  | > 100 |  |  |  | > 100 µM |  | > 100 µM |  | > 100 µM |  | > 100 µM |  | > 100 µM |  | > 100 µM |  |  |  |  |
